Structures can show the parent of a compound that is named as a salt.

Our source for the IC50 values is patent US11485735B2, “Selective CDK4/6 inhibitor and preparation thereof” (Wuxi Shuangliang Biotechnology Co., Ltd., priority 2019, dated 2022).

In test [1] the target is T1, CRBN (Homo sapiens, UniProt Q96SW2).
T1 construct: purchased Wuxi Biortus Biosciences Co. Ltd
Put plainly: In-vitro inhibition assay of CRBN activity (fluorescence polarization, Cy5-Thalidomide). The format is binding. The settings on record: Cy5-Thalidomide 10 nM, CRBN 180 nM, 27° C., 60 min. As for the experimental part: The final volume for assay was 20 μL, and the reaction temperature was 27° C. CRBN was produced by Wuxi Biortus Biosciences Co. Ltd. The concentration of the kinase was determined by the optimization experiment, and the kinase was diluted with an assay buffer (50 mM Tris, pH 7.5, 100 mM NaCl, and 0.01% Pluronic acid) to obtain a corresponding kinase solution (2× concentration). The compound was dissolved in dimethyl sulfoxide (DMSO) to reach a concentration of 10 mM. […] 5 μL of the test compound solution was mixed with 5 μL of the substrate solution, and 10 μL of the kinase solution was added to the mixture. The mixture was incubated at 27° C. for 60 min. Each assay was conducted in at least two replicates. […].
The final concentrations of the reagents in the assay were as follows. […] The data of fluorescence polarization assay were read on TECAN infinite M1000. Data were calculated by using GraphPad Prism version 6.0, and IC50 values were obtained by adjusting the non-linear regression models of the dose response curves.

In test [2] the target is CDK9 (Homo sapiens, UniProt P50750). Nature of the test: In-vitro kinase inhibitory activity, CDK9 (selectivity). The settings on record: read-out: IC50 (half maximal inhibitory concentration, nM) CDK9. In kind it is biochemical.
Sequence of CDK9 (P50750 whole entry, species assumed): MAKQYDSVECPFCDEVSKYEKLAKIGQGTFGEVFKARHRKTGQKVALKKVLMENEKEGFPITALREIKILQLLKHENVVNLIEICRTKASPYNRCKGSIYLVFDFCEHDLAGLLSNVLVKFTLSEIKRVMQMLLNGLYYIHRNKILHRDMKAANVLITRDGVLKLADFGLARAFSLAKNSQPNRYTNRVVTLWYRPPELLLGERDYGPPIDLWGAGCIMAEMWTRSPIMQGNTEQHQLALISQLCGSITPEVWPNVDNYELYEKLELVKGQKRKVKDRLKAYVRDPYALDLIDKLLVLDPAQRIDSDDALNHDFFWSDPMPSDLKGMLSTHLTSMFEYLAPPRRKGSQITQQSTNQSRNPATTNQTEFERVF
Sequence of CDK9 (O60563 whole entry partner, species assumed): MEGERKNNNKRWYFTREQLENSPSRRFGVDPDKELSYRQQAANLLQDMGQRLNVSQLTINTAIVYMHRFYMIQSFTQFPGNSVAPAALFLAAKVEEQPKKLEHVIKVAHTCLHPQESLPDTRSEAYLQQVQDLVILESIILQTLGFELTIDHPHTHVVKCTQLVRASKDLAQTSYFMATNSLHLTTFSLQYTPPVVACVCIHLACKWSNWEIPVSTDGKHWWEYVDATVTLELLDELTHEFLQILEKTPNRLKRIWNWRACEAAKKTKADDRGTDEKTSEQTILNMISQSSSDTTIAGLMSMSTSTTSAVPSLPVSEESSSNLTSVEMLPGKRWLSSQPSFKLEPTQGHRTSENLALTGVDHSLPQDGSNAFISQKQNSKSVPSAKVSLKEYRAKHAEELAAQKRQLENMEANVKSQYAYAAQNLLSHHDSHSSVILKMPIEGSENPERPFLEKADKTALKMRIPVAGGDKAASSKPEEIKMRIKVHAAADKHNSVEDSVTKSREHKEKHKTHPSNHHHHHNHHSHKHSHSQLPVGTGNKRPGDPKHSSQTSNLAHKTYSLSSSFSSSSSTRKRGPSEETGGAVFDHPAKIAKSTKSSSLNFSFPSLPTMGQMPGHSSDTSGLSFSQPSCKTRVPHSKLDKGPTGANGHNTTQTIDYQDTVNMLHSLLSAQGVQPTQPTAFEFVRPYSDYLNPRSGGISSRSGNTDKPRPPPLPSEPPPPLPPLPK
For test [3], the target named is T2, CDK4/CyclinD3 (Homo sapiens, UniProt P11802).
T2 construct: purchased Wuxi Biortus Biosciences Co. Ltd
T2 sequence (P11802 whole entry, species assumed): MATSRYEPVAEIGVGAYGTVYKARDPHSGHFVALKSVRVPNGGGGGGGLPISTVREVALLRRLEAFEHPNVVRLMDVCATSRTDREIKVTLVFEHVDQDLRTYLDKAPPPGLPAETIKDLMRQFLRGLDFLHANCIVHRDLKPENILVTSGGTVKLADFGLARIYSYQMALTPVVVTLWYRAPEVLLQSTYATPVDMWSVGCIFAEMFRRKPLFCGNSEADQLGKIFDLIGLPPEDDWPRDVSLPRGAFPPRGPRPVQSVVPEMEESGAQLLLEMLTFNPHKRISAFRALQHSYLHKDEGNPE
T2 sequence (P30281 whole entry partner, species assumed): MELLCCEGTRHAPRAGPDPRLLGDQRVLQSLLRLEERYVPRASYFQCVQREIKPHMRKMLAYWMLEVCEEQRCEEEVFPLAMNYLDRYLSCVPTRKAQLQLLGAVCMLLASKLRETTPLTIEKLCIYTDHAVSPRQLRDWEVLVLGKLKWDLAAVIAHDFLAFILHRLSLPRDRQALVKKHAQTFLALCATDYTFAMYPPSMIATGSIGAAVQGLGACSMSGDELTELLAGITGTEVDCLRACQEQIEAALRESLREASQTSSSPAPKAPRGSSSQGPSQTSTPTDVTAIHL
Put plainly: In-vitro kinase inhibitory activity, CDK4/CyclinD3 (Caliper EZ Reader II mobility shift). The format is biochemical. The settings on record: CDK4/CyclinD3 20 nM, ATP 2 mM, Peptide 1 μM, 27° C., 180 min; read-out: IC50 (half maximal inhibitory concentration, nM) CDK4. As to the method: The final volume for assay was 16 μL, and the reaction temperature was 27° C. CDK4/CyclinD3 was produced by Wuxi Biortus Biosciences Co. Ltd. The concentration of the kinase was determined by the results of the optimization experiment. The kinase was diluted with an assay buffer (50 mM Tris HCl pH 8.0, 0.01% Tween 20, 50 μg/mL BSA, and 5 mM MgCl2) to obtain a corresponding kinase solution (2.4× concentration). The compound was dissolved in dimethyl sulfoxide (DMSO) to reach a concentration of 10 mM. […] 2 μL of the test compound solution was mixed with 5 μL of the kinase solution, and the mixture was incubated for 10 min. 5 μL of the mixed solution of the polypeptide substrate and ATP was then added. The mixture was incubated at 27° C. for 180 min, and then the reaction was terminated by adding 4 μL of EDTA with a concentration of 120 mM to each sample. […] Each assay was conducted in at least two replicates.
(§1) The final concentrations of the reagents in the assay were as follows. […] The reaction mixture was analyzed on a Caliper EZ Reader II by electrophoretic separation of the fluorescent substrate and the phosphorylated product. Data were calculated by using GraphPad Prism version 6.0 and IC50 values were obtained by adjusting the non-linear regression models of the dose response curves.

For test [4], the target named is T3, CDK6/CyclinD3 (Homo sapiens, UniProt Q00534).
T3 construct: purchased Wuxi Biortus Biosciences Co. Ltd
T3 sequence (Q00534 whole entry, species assumed): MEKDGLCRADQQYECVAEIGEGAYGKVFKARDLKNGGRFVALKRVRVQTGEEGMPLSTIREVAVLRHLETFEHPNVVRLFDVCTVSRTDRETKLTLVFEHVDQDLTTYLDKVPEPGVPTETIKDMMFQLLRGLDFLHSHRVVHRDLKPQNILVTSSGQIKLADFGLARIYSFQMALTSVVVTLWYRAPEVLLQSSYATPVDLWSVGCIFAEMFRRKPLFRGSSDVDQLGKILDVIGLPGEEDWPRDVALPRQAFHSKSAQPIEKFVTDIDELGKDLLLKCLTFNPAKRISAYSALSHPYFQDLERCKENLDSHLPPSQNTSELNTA
T3 sequence (P30281 whole entry partner, species assumed): as the sequence (P30281 whole entry partner, species assumed) above
Nature of the test: In-vitro kinase inhibitory activity, CDK6/CyclinD3 (Caliper EZ Reader II mobility shift). The format is biochemical. The note with it: CDK6/CyclinD3 20 nM, ATP 2 mM, Peptide 1 μM, 27° C., 120 min; read-out: IC50 (half maximal inhibitory concentration, nM) CDK6. As for the experimental part: The final volume for assay was 16 μL, and the reaction temperature was 27° C. […] The compound was dissolved in dimethyl sulfoxide (DMSO) to reach a concentration of 10 mM. […] 2 μL of the test compound solution was mixed with 5 μL of the kinase solution, and the mixture was incubated for 10 min. 5 μL of the mixed solution of the polypeptide substrate and ATP was then added. The mixture was incubated at 27° C. for 120 min, and then the reaction was terminated by adding 4 μL of EDTA with a concentration of 120 mM to each sample. […] Each assay was conducted in at least two replicates.
as §1

Test [5] concerns the target CDK2 (Homo sapiens, UniProt P24941). Nature of the test: In-vitro kinase inhibitory activity, CDK2 (selectivity). The format is biochemical. The note with it: read-out: IC50 (half maximal inhibitory concentration, nM) CDK2.
Test [6] relates to human colon cancer COLO205 cells. Put plainly: Growth inhibition of tumor cells cultured in vitro, CellTiter-Glo, COLO205. The note with it: Homo sapiens, COLO 205, 72 h, COLO205, 72 h, CellTiter-Glo. In kind it is cell-based. An excerpt:
(§2) Test drugs: Compounds of the present disclosure. Tumor cell strains: human colon cancer COLO205 cells and human breast cancer MCF-7 cells.
(§3) The growth inhibitory effects on human tumor cells COLO205 and MCF-7 cultured in vitro were observed by using a CellTiter-Glo Luminescent Cell Viability Assay Kit (Promega, Cat. No. G7572). Human tumor cells COLO205 and MCF-7 were both purchased from the American Type Culture Collection.
(§4) CellTiter-Glo Luminescent Cell Viability Assay: The previous cell culture medium was discarded, and the tumor cells were rinsed twice with PBS. An appropriate amount of trypsin (VWR, Cat. No. 0458-25G) was added to digest the tumor cells until most of the cells turned round and were detached from the wall. The trypsin digestion was terminated by adding an RPMI-1640 medium (COLO205; Gibco, Cat. No. A10491-01) containing 10% fetal bovine serum (Hyclone, Cat. No. SV30160.03) and MEM medium (MCF-7; Gibco, Cat. No. 10370-021) containing 10% fetal bovine serum and 0.01 mg/mL insulin, and the cells were gently pipetted with a pipette to completely suspend the tumor cells. After cell counting, a tumor cell suspension was prepared using a complete culture medium and the final concentration was 6.7×10^4 cells/mL. 90 μL of the tumor cell suspension was seeded in each well of a 96-well culture plate (6000 cells/well). The plate was then placed in an incubator with 5% CO2 at 37° C. and incubated for 24 h. A test drug was added by using an Agilent Bravo Automated Liquid Handling Platform, and 10 μL of the sample was added in each well. The assay was conducted in triplicate for each group. A compound of the present disclosure was dissolved in DMSO (BioRoYee, Cat. No. AF0231), and then the resulting solution was diluted to 10 μM/L, 3.33 μM/L, 1.11 μM/L, 0.37 μM/L, 0.123 μM/L, 0.041 μM/L, 0.0137 μM/L, 0.0046 μM/L, and 0.0015 μM/L with the culture medium. The concentration of DMSO was lower than 0.1%, and a culture medium containing 0.1% DMSO was added to the well which was set as a vehicle control group. The 96-well plate was placed in an incubator with 5% CO2 at 37° C. and incubated for 72 h. The 96-well plate to be tested was equilibrated at room temperature for 30 min, and 100 μL of Cell Titer-Glo reagent was added to each well. The contents of each well were mixed in an orbital shaker for 2 min to induce cell lysis, and the plate was incubated at room temperature for 10 min to achieve a constant value of fluorescent intensity. Finally, the chemiluminescence intensity was detected by TECAN M1000. Data were processed with Graphpad Prism 6.0 software. The growth curve of the cells was plotted. The cell growth inhibition rate of a drug was calculated, and the half maximal inhibitory concentration (IC50) of the drug was determined.

Test [7] has as its system human breast cancer MCF-7 cells. Nature of the test: Growth inhibition of tumor cells cultured in vitro, CellTiter-Glo, MCF-7. The format is cell-based. The note with it: MCF-7, 72 h, CellTiter-Glo.
Text: as §2, §3, §4

T1 sequence (Q96SW2 whole entry, species assumed): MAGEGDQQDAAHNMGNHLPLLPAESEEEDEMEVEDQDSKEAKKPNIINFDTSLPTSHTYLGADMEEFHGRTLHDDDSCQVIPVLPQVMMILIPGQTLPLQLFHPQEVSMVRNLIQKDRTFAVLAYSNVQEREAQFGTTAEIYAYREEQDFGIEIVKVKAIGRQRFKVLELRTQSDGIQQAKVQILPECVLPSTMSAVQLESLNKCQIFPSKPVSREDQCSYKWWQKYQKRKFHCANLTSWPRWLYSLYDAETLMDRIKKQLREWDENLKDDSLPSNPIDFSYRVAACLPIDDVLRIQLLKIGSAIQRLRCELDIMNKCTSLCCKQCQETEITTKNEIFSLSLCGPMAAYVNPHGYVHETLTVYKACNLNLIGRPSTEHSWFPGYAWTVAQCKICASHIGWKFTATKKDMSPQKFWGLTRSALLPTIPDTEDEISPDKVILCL

For `CC(=O)c1c(C)c2cnc(Nc3ccc(N4CCN(CCN5CCC(CN6CCN(c7ccc8c(c7)CN(C7CCC(=O)NC7=O)C8=O)CC6)CC5)CC4)cn3)nc2n(C2CCCC2)c1=O` (single isomer, unassigned) [Compound 3, 3-(5-(4-((1-(2-(4-(6-((6-acetyl-8-cyclopentyl-5-methyl-7-oxo-7,8-dihydropyrido[2,3-d]pyrimidin-2-yl)amino)pyridin-3-yl)piperazin-1-yl)ethyl)piperidin-4-yl)methyl)piperazin-1-yl)-1-oxoisoindolin-2-yl)piperidine-2,6-dione], the IC50 in test [1] was found to be 1200 nM; in test [2] it was 2850 nM; in test [3] it was 16.1 nM; in test [4], 14.5 nM; in test [5], 9660 nM.

As to `Cc1nc2c(F)cc(-c3nc(Nc4ccc(CN5CCN(CC(=O)N6CCC(C(=O)N7CCN(c8ccc9c(c8)CN([C@H]8CCC(=O)NC8=O)C9=O)CC7)CC6)CC5)cn4)ncc3F)cc2n1C(C)C` [Compound 6, (S)-3-(5-(4-(1-(2-(4-((6-((5-fluoro-4-(4-fluoro-1-isopropyl-2-methyl-1H-benzo[d]imidazol-6-yl)pyrimidin-2-yl)amino)pyridin-3-yl)methyl)piperazin-1-yl)acetyl)piperidin-4-carbonyl)piperazin-1-yl)-1-oxoisoindolin-2-yl)piperidine-2,6-dione], the IC50 in test [1] stood at 2510 nM; in test [2] it was 946 nM; in test [3], 24.2 nM; in test [4], 42.4 nM; in test [5] it was 1140 nM.

Consider `CC(=O)c1c(C)c2cnc(Nc3ccc(N4CCN(CCN5CCC(OC6CCN(c7ccc8c(c7)CN(C7CCC(=O)NC7=O)C8=O)CC6)CC5)CC4)cn3)nc2n(C2CCCC2)c1=O` (centres unmarked) [Compound 9, 3-(5-(4-((1-(2-(4-(6-((6-acetyl-8-cyclopentyl-5-methyl-7-oxo-7,8-dihydropyrido[2,3-d]pyrimidin-2-yl)amino)pyridin-3-yl)piperazin-1-yl)ethyl)piperidin-4-yl)oxy)piperidin-1-yl)-1-oxoisoindolin-2-yl)piperidine-2,6-dione dihydrochloride], for which the IC50 in test [2] was 3510 nM; in test [3] it was 19.2 nM; in test [6], 247 nM; in test [4], 14.2 nM; in test [7] (Homo sapiens, MCF7, 72 h), more than 10000 nM; in test [5] it was more than 10000 nM.

Regarding `CC(=O)c1c(C)c2cnc(Nc3ccc(N4CCN(CCN5CCC(CC6CCN(c7ccc8c(c7)CN(C7CCC(=O)NC7=O)C8=O)CC6)CC5)CC4)cn3)nc2n(C2CCCC2)c1=O` (centres unmarked) [Compound 11, 3-(5-(4-((1-(2-(4-(6-((6-acetyl-8-cyclopentyl-5-methyl-7-oxo-7,8-dihydropyrido[2,3-d]pyrimidin-2-yl)amino)pyridin-3-yl)piperazin-1-yl)ethyl)piperidin-4-yl)methyl)piperidin-1-yl)-1-oxoisoindolin-2-yl)piperidine-2,6-dione dihydrochloride], the IC50 in test [2] was 4440 nM; in test [3] it was 24.6 nM; in test [6] it was 127 nM; in test [4], 21.1 nM; in test [7] (Homo sapiens, MCF7, 72 h) it was more than 10000 nM; in test [5], 8200 nM.

For `Cc1nc2c(F)cc(-c3nc(Nc4ccc(CN5CCN(CCN6CCN(c7ccc8c(c7)CN(C7CCC(=O)NC7=O)C8=O)CC6)CC5)cn4)ncc3F)cc2n1C(C)C` (centres unmarked) [Compound 12, 3-(5-(4-(2-(4-((6-((5-fluoro-4-(4-fluoro-1-isopropyl-2-methyl-1H-benzo[d]imidazol-6-yl)pyrimidin-2-yl)amino)pyridin-3-yl)methyl)piperazin-1-yl)ethyl)piperazin-1-yl)-1-oxoisoindolin-2-yl) piperidine-2,6-dione trihydrochloride], the IC50 in test [2] turned out to be 688 nM; in test [3], 13 nM; in test [4], 23.2 nM; in test [5], 1030 nM.

On to `CC(=O)c1c(C)c2cnc(Nc3ccc(N4CCN(CCN5CCN(c6ccc7c(c6Cl)CN(C6CCC(=O)NC6=O)C7=O)CC5)CC4)cn3)nc2n(C2CCCC2)c1=O` (centres unmarked) [Compound 20, 3-(5-(4-(2-(4-(6-((6-acetyl-8-cyclopentyl-5-methyl-7-oxo-7,8-dihydropyrido[2,3-d]pyrimidin-2-yl)amino)pyridin-3-yl)piperazin-1-yl)ethyl)piperazin-1-yl)-4-chloro-1-oxoisoindolin-2-yl)piperidine-2,6-dione], for which the IC50 was 3760 nM in test [2]; 44.6 nM in test [3]; 78.3 nM in test [6]; 19.6 nM in test [4]; more than 10000 nM in test [7] (Homo sapiens, MCF7, 72 h); more than 10000 nM in test [5].

Regarding `CC(=O)c1c(C)c2cnc(Nc3ccc(N4CCN(CCN5CCN(c6c(F)cc7c(c6F)CN(C6CCC(=O)NC6=O)C7=O)CC5)CC4)cn3)nc2n(C2CCCC2)c1=O` (centres unmarked) [Compound 22, 3-(5-(4-(2-(4-(6-((6-acetyl-8-cyclopentyl-5-methyl-7-oxo-7,8-dihydropyrido[2,3-d]pyrimidin-2-yl)amino)pyridin-3-yl)piperazin-1-yl)ethyl)piperazin-1-yl)-4,6-difluoro-1-oxoisoindolin-2-yl) piperidine-2,6-dione], the IC50 in test [2] is 6220 nM; in test [3] it was 27.4 nM; in test [6] it was 87.1 nM; in test [4], 18.2 nM; in test [7], more than 10000 nM; in test [5], more than 10000 nM.
